Assays:
Experiment in all cases: relative viability (nuclei count vs DMSO), 5 days (fraction); higher = more cells survive
Tipifarnib + Foretinib = compound: Cn1cncc1[C@@](N)(c1ccc(Cl)cc1)c1ccc2c(c1)c(-c1cccc(Cl)c1)cc(=O)n2C [Tipifarnib] + COc1cc2c(Oc3ccc(NC(=O)C4(C(=O)Nc5ccc(F)cc5)CC4)cc3F)ccnc2cc1OCCCN1CCOCC1 [Foretinib] (partner 0.25 µM)
Method in brief: (§1)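 A single step with final 0.05% Triton X-100, 1% formaldehyde and 1 ug/ml Hoechst fixed the cells and stained nuclei 5 days after treatment. Lung cancer cell lines in 1536-well plates had been treated by pin tool the day after seeding with one drug alone or a fixed anchor-drug dose plus five library-drug doses (not always all listed) in √10 steps, and nuclei were counted on 4× images. Relative viability is the ratio of nuclei in treated wells to nuclei in vehicle wells, taken as the median of duplicate plates.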

Tipifarnib + Alpelisib = compound: Cn1cncc1[C@@](N)(c1ccc(Cl)cc1)c1ccc2c(c1)c(-c1cccc(Cl)c1)cc(=O)n2C [Tipifarnib] + Cc1nc(NC(=O)N2CCC[C@H]2C(N)=O)sc1-c1ccnc(C(C)(C)C(F)(F)F)c1 [Alpelisib] (partner 2 µM)
Method in brief: as §1

Tipifarnib + Pemetrexed = compound: Cn1cncc1[C@@](N)(c1ccc(Cl)cc1)c1ccc2c(c1)c(-c1cccc(Cl)c1)cc(=O)n2C [Tipifarnib] + Nc1nc2[nH]cc(CCc3ccc(C(=O)N[C@@H](CCC(=O)O)C(=O)O)cc3)c2c(=O)[nH]1 [Pemetrexed] (partner 0.2 µM)
Method in brief: as §1

Tipifarnib + Olaparib = compound: Cn1cncc1[C@@](N)(c1ccc(Cl)cc1)c1ccc2c(c1)c(-c1cccc(Cl)c1)cc(=O)n2C [Tipifarnib] + O=C(c1cc(Cc2n[nH]c(=O)c3ccccc23)ccc1F)N1CCN(C(=O)C2CC2)CC1 [Olaparib] (partner 8 µM)
Method in brief: as §1

Cell Line	relative viability (Tipifarnib + Foretinib; first compound 0.01 µM)	relative viability (Tipifarnib + Foretinib; first compound 0.03162 µM)	relative viability (Tipifarnib + Foretinib; first compound 0.1 µM)	relative viability (Tipifarnib + Foretinib; first compound 0.3162 µM)	relative viability (Tipifarnib + Foretinib; first compound 1 µM)	relative viability (Tipifarnib + Alpelisib; first compound 0.01 µM)	relative viability (Tipifarnib + Alpelisib; first compound 0.03162 µM)	relative viability (Tipifarnib + Alpelisib; first compound 0.1 µM)	relative viability (Tipifarnib + Alpelisib; first compound 0.3162 µM)	relative viability (Tipifarnib + Alpelisib; first compound 1 µM)	relative viability (Tipifarnib + Pemetrexed; first compound 0.01 µM)	relative viability (Tipifarnib + Pemetrexed; first compound 0.03162 µM)	relative viability (Tipifarnib + Pemetrexed; first compound 0.1 µM)	relative viability (Tipifarnib + Pemetrexed; first compound 0.3162 µM)	relative viability (Tipifarnib + Pemetrexed; first compound 1 µM)	relative viability (Tipifarnib + Olaparib; first compound 0.01 µM)	relative viability (Tipifarnib + Olaparib; first compound 0.03162 µM)	relative viability (Tipifarnib + Olaparib; first compound 0.1 µM)	relative viability (Tipifarnib + Olaparib; first compound 0.3162 µM)	relative viability (Tipifarnib + Olaparib; first compound 1 µM)
NCI-H1975	0.936	0.967	0.939	0.604	0.568	0.713	0.599	0.468	0.329	0.351	0.258	0.285	0.3	0.241	0.251	0.863	0.764	0.782	0.559	0.505
UMC-11	0.856	0.725	0.612	0.616	0.578	0.939	0.691	0.504	0.409	0.487	0.578	0.65	0.499	0.46	0.424	0.432	0.356	0.357	0.346	0.339
A-427	1.19	1.06	1.06	0.873	0.927	1.21	1.1	1.06	1.02	0.952	0.998	1.06	0.82	0.979	0.739	0.834	0.696	0.697	0.694	0.727
LCLC-97TM1	1.03	0.852	0.898	0.802	0.685	0.218	0.181	0.2	0.17	0.173	0.169	0.208	0.192	0.16	0.144	0.447	0.245	0.315	0.229	0.239
HCC-15	0.967	0.917	0.785	0.635	0.595	0.827	0.646	0.584	0.451	0.367	0.227	0.254	0.226	0.222	0.232	0.758	0.75	0.793	0.631	0.56
NCI-H647	1.44	0.78	0.95	0.379	0.534	1.05	0.822	0.838	0.44	0.488	0.209	0.213	0.157	0.139	0.116	0.566	0.472	0.39	0.142	0.142
SW 1573	1.12	0.873	0.657	0.498	0.173	0.667	0.718	0.449	0.44	0.331	0.781	0.719	0.458	0.383	0.245	0.428	0.305	0.307	0.233	0.27
NCI-H1651	0.833	0.79	0.85	0.717	0.831	1.32	1.01	1.03	0.837	0.811	0.592	0.636	0.676	0.635	0.522	0.213	0.194	0.236	0.22	0.222
NCI-H2023	0.958	0.7	0.609	0.336	0.505	0.595	0.442	0.391	0.326	0.334	0.242	0.289	0.19	0.212	0.198	0.489	0.36	0.373	0.298	0.343
COR-L 105	1.18	0.872	0.897	0.504	0.604	1.12	0.891	0.731	0.46	0.649	1.16	1.11	0.814	0.784	0.793	0.691	0.725	0.59	0.546	0.584
NCI-H1734	0.902	0.832	0.729	0.458	0.487	0.714	0.598	0.592	0.501	0.418	0.38	0.442	0.428	0.419	0.394	0.626	0.615	0.54	0.494	0.482
NCI-H3122	0.957	0.796	0.744	0.693	0.544	0.665	0.598	0.527	0.402	0.401	0.205	0.204	0.199	0.188	0.188	0.685	0.681	0.482	0.422	0.415
CAL-12T	1.09	0.885	0.727	0.469	0.536	1.33	0.851	0.555	0.417	0.693	1.2	1.09	0.741	0.472	0.62	0.717	0.587	0.527	0.455	0.465
HCC-78	0.58	0.546	0.491	0.513	0.461	0.41	0.314	0.317	0.271	0.292	0.934	0.941	0.91	0.906	0.933	0.93	1.01	0.863	0.758	0.636
NCI-H2085	0.853	0.6	0.493	0.497	0.589	0.924	0.709	0.605	0.599	0.533	0.874	0.677	0.693	0.525	0.539	0.823	0.758	0.613	0.513	0.7
